This note sets out measurements from ChEMBL document CHEMBL1955774, “Radiosynthesis of [11C]BBAC and [11C]BBPC as potential PET tracers for orexin2 receptors” (Bioorg Med Chem Lett, 2012).

As usually defined, the logP is a log measure of how a compound divides between an organic and an aqueous phase.

Data set [1] relates to Brain. The data set is described as follows: Drug uptake in anesthetized rhesus monkey brain at 1.5 ug measured for 122 mins by PET analysis. It counts as ADME, tissue-based, Macaca mulatta. Conditions: in vivo; call rule not given here.
The nature of data set [2]: Partition coefficient, log P of the compound by shake flask method. It counts as physicochemical. The following applies: octanol/water.
Data set [3] deals with Brain. The data set is described as follows: Drug uptake in anesthetized rhesus monkey brain at 1.7 ug measured for 122 mins by PET analysis. The following applies: in vivo. The class given is ADME, tissue-based, Macaca mulatta.

As to `[11CH3]n1c(SCC(=O)N2CCC[C@H]2C(=O)Nc2ccccc2-c2ccccc2)nc2ccccc21`, in the data set with Brain [1], the Drug uptake entry is reported as “Not Active”. In data set [2], this molecule showed a logP of 3.4.

Take `[11CH3]n1c(CCC(=O)N2CCC[C@H]2C(=O)Nc2ccccc2-c2ccccc2)nc2ccccc21`: the Drug uptake result in the data set with Brain [3] is “Not Active”. In data set [2], this molecule had a logP of 2.8.
